Reference: patent US10780043B2, “Cosmetic compositions comprising ginger root extracts” (Symrise AG, priority 2015, dated 2020)

System: CYP1A1 gene expression
Test: CYP1A1 gene expression (qRT-PCR) in keratinocytes after induction with model particles
Assay type: cell-based, human
Details: 10 μM, untreated = 1
Method: Gene expression was analyzed via qRT-PCR.

CYP1A1 Induction mean ± SE (NHEK adult, SRM1650 1.5 μg/cm2, 6 h): 0.02 ± 0.00 | CYP1A1 Induction mean ± SE (NHEK adult, SRM2975 1.5 μg/cm2, 6 h): 0.20 ± 0.00 | CYP1A1 Induction mean ± SE (NHEK adult, SRM2975 1.5 μg/cm2, 24 h): 0.01 ± 0.00 | CYP1A1 Induction mean ± SE (indoor particles Huber990 1.5 μg/cm2, 6 h): 0.05 ± 0.00 | CYP1A1 Induction mean ± SE (indoor particles Huber990 1.5 μg/cm2, 24 h): 0.20 ± 0.00
Substance: E/Z-2-benzylindene-5,6-dimethoxy-3,3-dimethylindan-1-one [BDDI]
